Measurements as given in patent publication US7261901B2, “Vaccine and compositions for the prevention and treatment of neisserial infections” (University of Iowa Research Foundation, priority 2001, dated 2007).

What was measured:
primary cervical cells = assay: Association and invasion assays, primary cervical cells (cell type not specified); assay type: cell-based, human; conditions: for intracellular survival of PLD mutant gonococci: 100 μM pervanadate or 200 nM PMA
Procedure: The anti-PLD antibody was screened for specificity to PLD using assays well-known to the art.
(§1) 8. N. gonorrhoeae Attachment to and Invasion of Primary, Human, Cervical Cells. Primary cervical cell monolayers were infected with wild-type or PLD mutant gonococci as outlined above. Variable concentrations of Streptomyces spp. PLD (SsPLD) (Sigma), PMA, or 4-α phorbol were included in association (adherence and invasion) or invasion assays, as noted. Cervical cells were preincubated (30 minutes, 37° C.) with 200 nM PMA or 4-α phorbol before the addition of gonococci. 10 units ml^−1 SsPLD was added simultaneously with gonococci. Alternatively, where noted, cervical cell monolayers were pre-incubated (30 minutes, 37° C.) with pervanadate, which was made by mixing 100 μM ortho-sodium vanadate in 3 mM hydrogen peroxide. In separate assays, infection supernatants were collected from wild-type or PLD mutant-infected cervical cell monolayers, gonococci were removed by filtration through a 0.22 μm syringe filter (i.e., wild-type or mutant primed supernatants) and were added to association and/or invasion assays, as noted. The ability of gonococci to adhere to and/or invade pex and pen cells was quantitatively determined using standard gentimicin-resistance assays, performed as described previously (Edwards et al., 2000), and in which chemical or protein additives were included or excluded from the invasion assay as described above. The total association (i.e., adherence and invasion) of gonococci with pex and pen cells was quantitated by the omission of gentimicin from the above described invasion assay. Percent invasion of N. gonorrhoeae 1291 or 1291ΔPLDin the presence or absence of experimental additives was determined as a function of the original inoculum and the number of colonies formed with subsequent plating of the cellular lysate. A Kruskal-Wallis non-parametric analysis of variance was used to determine the statistical significance of the association and invasion assays described above.

CR3 = CR3 surface expression on primary cervical cells (ELISA with H5A4); assay type: cell-based, human; conditions: for CR3 recruitment to the cervical cell surface: PLD mutant infected cells, 100 μM pervanadate or 200 nM PMA; for CR3 surface level expression: uninfected cervical cells
Procedure: As described hereinbelow, primary cervical cells were seeded in 96-well microtiter plates to comparatively quantitate surface level expression of CR3. In the procedure, cells were (i) uninfected; (ii) challenged with wild-type gonococci; (iii) challenged with PLD-mutant gonococci; and/or (iv) challenged with filtered, primed (see infra) wild-type or PLD-mutant gonococcal supernatants. After removal of the infection supernatant, cell monolayers were rinsed, fixed and subsequently labeled with an antibody (anti-CD11b antibody H5A4; Hildreth and August, 1985) specific for the CR3 I-domain subunit followed by an HRP antibody-conjugate (commercially available from Kirkegaard & Perry Laboratories, Gaithersburg, Md.) using standard ELISA protocols. Absorbance of the o-phenylenediamine dihydrochloride peroxidase substrate was determined spectrophotometrically at 490 nm (FIG. 15).
7. Determination of CR3 Surface Expression on Primary Cervical Cells. Pex and pen cells were passed to 96-well microtiter plates and allowed to grow to confluence. Cervical cells were then challenged with wild-type or PLD mutant gonococci after which the infection medium was removed and cells were rinsed thrice with PBS. Cells were fixed with 2% paraformaldehyde. Prior to immuno-analysis of CR3 surface level expression, cells were again rinsed with PBS. Immunoassays were then performed according to standard ELISA protocols using the H5A4 anti-CD11b (i.e., CR3) primary and peroxidase-conjugated secondary antibodies. Absorbance of the o-phenylenediamine dihydrochloride peroxidase substrate was determined spectrophotometrically at 490 nm. Primary antibody was omitted from one well, and the secondary antibody was omitted from a second well, which served as a control for endogenous peroxidase activity. Where indicated 200 nM phorbol myristate (PMA), 200 nM 4-α phorbol, 100 μM pervanadate, 3 mM hydrogen peroxide, or gonococci-depleted supernatants collected from wild-type or PLD mutant infection studies were included in the infection studies as outlined below.
Determination of CR3 Surface Expression on Primary Cervical Cells. Pex and pen cells were passed to 96-well microtiter plates and allowed to grow to confluence. Cervical cells were then challenged with wild-type or PLD mutant gonococci after which the infection medium was removed and cells were rinsed thrice with PBS. Cells were fixed with 2% paraformaldehyde. Prior to immuno-analysis of CR3 surface level expression, cells were again rinsed with PBS. Immunoassays were then performed according to standard ELISA protocols using the H5A4 anti-CD11b (i.e., CR3) primary and peroxidase-conjugated secondary antibodies. Absorbance of the o-phenylenediamine dihydrochloride peroxidase substrate was determined spectrophotometrically at 495 nm. […]

Ectocervical Cells = assay: Association and invasion (gentimicin-resistance) assays, primary ectocervical (pex) cells; assay type: cell-based, human
Procedure: as §1
N. gonorrhoeae Attachment to and Invasion of Primary, Human, Cervical Cells. Primary cervical cell monolayers were infected with wild-type or PLD mutant gonococci as outlined above. Variable concentrations of PtC (Sigma), ethanol, 2-butanol, or Streptomyces spp. PLD (SsPLD) (Sigma) were included in association (adherence and invasion) or invasion assays, as noted. PtC, ethanol, 2-butanol, or 10 units ml^−1 SsPLD were added simultaneously with gonococci. In separate assays, infection supernatants were collected from wild-type or PLD mutant-infected cervical cell monolayers, gonococci were removed by filtration through a 0.22 μm syringe filter (to yield primed wild-type or mutant supernatants), which were then added to association and/or invasion assays, as noted. The ability of gonococci to adhere to and/or invade pex and pen cells was quantitatively determined using standard gentimicin-resistance assays, performed as described previously (Edwards et al., 2000) and in which chemical or protein additives were included or excluded from the invasion assay as described above. The total association (i.e., adherence and invasion) of gonococci with pex and pen cells was quantitated by the omission of gentimicin from the above described invasion assay. Percent invasion of N. gonorrhoeae 1291 or 1291ΔPLD in the presence or absence of experimental additives was determined as a function of the original inoculum and the number of colonies formed with subsequent plating of the cellular lysate. Inhibition of gonococcal attachment and/or invasion by exogenous PtC, ethanol, or 2-butanol was determined as a normalized function of the ability of gonococci to attach to and/or invade primary cervical cells in the absence of the competimer inhibitor. A Kruskal-Wallis non-parametric analysis of variance was used to determine the statistical significance of the association and invasion assays described above.

gonococci = conditions: 1.0, 0.1, or 0.01 percent alcohol, absence of cervical cells (data not shown)
Procedure: Consequently, it was determined if exogenously added PLD substrates could compete with cervical cell constituents for NgPLD activity and in doing so interfere with the role of NgPLD in gonococcal invasion.

Endocervical Cells = assay: Association and invasion (gentimicin-resistance) assays, primary endocervical (pen) cells; assay type: cell-based, human; conditions: 1291 + 100 nM DPG
Procedure: as §1, with “Alternatively, where noted, cervical cell monolayers were pre-incubated (30 minutes, 37° C.) with pervanadate, which was made by mixing 100 μM ortho-sodium vanadate in 3 mM hydrogen peroxide. In separate assays, infection supernatants were collected from wild-type or PLD mutant-infected cervical cell monolayers, gonococci were removed by filtration through a 0.22 μm syringe filter (i.e., wild-type or mutant primed supernatants) and were added to association and/or invasion assays, as noted.” left out, “A Kruskal-Wallis non-parametric analysis of variance was used to determine the statistical significance of the association and invasion assays described above.” left out

PLD = PLD activity (Amplex Red Phospholipase D Assay Kit) in gonococci, infected cervical cell lysates, fractions and supernatants; assay type: biochemical, N. gonorrhoeae
Procedure: (§2) 4. Determination of PLD Activity. PLD activity was accessed using the Amplex™ Red Phospholipase D Assay Kit (Molecular Probes, Eugene Oreg.). Wild-type and PLD mutant gonococci were suspended in PLD assay buffer to a final concentration of 10^7 bacteria ml^−1, and activity was determined according to the manufacturer's protocol. Assessment of PLD activity at acidic pH was determined in a two-step assay according to the manufacturer's protocol. For the first step, 10^8 gonococci were suspended in PBS with the pH adjusted to 3.0, 4.5, or 6.0. Gonococcal suspensions were diluted 10-fold in PLD assay buffer for the second step of the reaction. Cervical cell fractions were prepared as outlined below and PLD activity was assessed at neutral pH according to the manufacturer's protocol.
5. Fractionation of Primary Cervical Cells. Uninfected (control) and infected cervical cell monolayers were lysed in buffer A (50 mM tris, pH 7.5; 10 mM NaCl, 1 mM KCl; 2 mM MgCl2, 1 mM PMSF) by scraping cervical cells from tissue culture dishes placed on ice. The cell lysate was sonicated (two bursts of 20 seconds each). Cell debris and the nuclear fraction was removed by centrifugation (750×g, 10 minutes), and the supernatant from this spin was then subjected to filtration through a low-protein binding 0.22 μm syringe filter to ensure removal of gonococci. Alternatively, gonococci were removed by immunoprecipitation (as described by Wen et al., 2000) using the monoclonal antibody, 2C3, which recognizes the H.8 outer membrane protein of the pathogenic Neisseria. Sucrose was added to the resulting gonococcus-depleted supernatant (S1) to a final concentration of 300 mM. Ultracentrifugation (150,000×g, 90 minutes) was then performed to produce the plasma membrane-(pellet) and cytosol (supernatant 2, S2)-enriched fractions. The membrane-enriched fraction was resuspended in PLD assay buffer (50 mM Tris, 5 mM CaCl2, pH 8.0). S2 was concentrated by filtration through Centricon YM-30 centrifugal filter units (Millipore) after which cytosolic constituents were recovered in PLD assay buffer. Where indicated, prior to infection studies primary pex and pen cell monolayers were treated with 300 nM wortmannin (Sigma) (2 hours, 37° C.) or 1 μM cytochalasin D (Sigma) (30 minutes, 37° C.) to inhibit macropinocytosis of gonococci. Wortmannin and cytochalasin D were maintained in cervical cell cultures during the course of infection.
as §2, with “Determination of” for “4. Determination of”, “Assessment of gonococcal PLD activity” for “Assessment of PLD activity”
Fractionation of Primary Cervical Cells. Uninfected (control) and infected cervical cell monolayers were lysed in buffer A (50 mM tris, pH 7.5; 10 mM NaCl, 1 mM KCl; 2 mM MgCl2, 1 mM PMSF) by scraping cervical cells from tissue culture dishes placed on ice. The cell lysate was sonicated (two bursts of 20 seconds each). […] Sucrose was added to the resulting gonococcus-depleted supernatant (S1) to a final concentration of 300 mM. Ultracentrifugation (150,000×g, 90 minutes) was then performed to produce the plasma membrane-(pellet) and cytosol (supernatant 2, S2)-enriched fractions. The membrane-enriched fraction was resuspended in PLD assay buffer (50 mM Tris, 5 mM CaCl2, pH 8.0). […]

[1] = 1291 WT, alcohol competimer 0.01 %
[2] = 1291 WT, alcohol competimer 0.1 %
[3] = 1291 WT, alcohol competimer 1.0 %
[4] = Ectocervical Cells, 1291 + 100 nM DPG

## pervanadate
Primary cervical cells
  intracellular survival of PLD mutant gonococci: not sufficient to allow the intracellular survival
CR3
  CR3 recruitment to the cervical cell surface: rescues CR3 recruitment
  CR3 surface level expression: does not stimulate CR3 surface recruitment

## CCCCCCCCCCCCCC(=O)O[C@@H]1[C@@H](C)[C@@]2(O)[C@@H](C=C(CO)C[C@]3(O)C(=O)C(C)=C[C@@H]23)[C@@H]2C(C)(C)[C@]12OC(C)=O [PMA, phorbol myristate]
Primary cervical cells
  intracellular survival of PLD mutant gonococci: partially restored intracellular survival
CR3
  CR3 recruitment to the cervical cell surface: rescued CR3 recruitment
  CR3 surface level expression: increased CR3 surface level expression

## CCC(C)O (stereo not drawn) [2-Butanol, 2-butanol]
Ectocervical Cells; [1]
  Invasion (%): 2.8661 (0.53) %
Ectocervical Cells; [2]
  Invasion (%): 2.7087 (0.47) %
Ectocervical Cells; [3]
  Invasion (%): 2.6869 (0.47) %
Ectocervical Cells; 1291ΔPLD, alcohol competimer 0.01 %
  Invasion (%): 0.2819 (0.02) %
Ectocervical Cells; 1291ΔPLD, alcohol competimer 0.1 %
  Invasion (%): 0.3172 (0.03) %
Ectocervical Cells; 1291ΔPLD, alcohol competimer 1.0 %
  Invasion (%): 0.2960 (0.05) %
gonococci
  survival of gonococci: no significant difference in survival

## CCO [Ethanol, ethanol]
Ectocervical Cells; [1]
  Inhibition (%): 74.9582 (0.87) %
  Invasion (%): 0.6957 (0.02) %
Ectocervical Cells; [2]
  Inhibition (%): 80.9243 (1.41) %
  Invasion (%): 0.5288 (0.01) %
Ectocervical Cells; [3]
  Invasion (%): 0.2564 (0.01) %
Ectocervical Cells; 1291 WT, alcohol competimer 1.0 %, variance in parentheses
  Inhibition (%): 90.7346 (0.92) %
gonococci
  survival of gonococci: no significant difference in survival

## O=C(O)C(COP(=O)(O)O)OP(=O)(O)O (stereo not drawn) [DPG, 2,3-diphosphoglycerate]
Primary cervical cells
  effect on PLD activity, association and invasion of cervical cells by gonococci: inhibits gonococcal association and invasion
Endocervical Cells
  Association, Mean: 6.97
  Invasion, Mean: 0.21
Ectocervical Cells; [4]
  Association, Mean: 15.31
  Invasion, Mean: 0.36

## OO [H2O2, hydrogen peroxide]
Primary cervical cells; negative controls: 200 nM 4-α phorbol, 3 mM hydrogen peroxide
  effect on gonococcal association, invasion or CR3 cell surface recruitment: No effect was observed
PLD; No cervical cells
  PLD activity (Table 3, untitled): 0.961
PLD; gonococci alone and assay control (Table 7B, C)
  Mean PLD activity, No Cells: 0.885
PLD; positive control
  PLD activity, Assay Controls (Table 4C): 0.781
PLD; positive control (Table 8A)
  PLD activity, Assay Controls, mean: 1.557
